Target: T1, human vasopressin V1a receptor subtype (Homo sapiens, UniProt P37288)
T1 construct: host or cells: CHO cells (pZeoSV vector for the Thibonnier line)
Test: Vasopressin binding in Chinese Hamster Ovary cell membranes expressing human vasopressin V1a subtype receptors
Conditions: 100 nM, CHO cell membranes, [3H]Manning ligand, values without parentheses
Description: Vasopressin Binding in Chinese Hamster Ovary Cell Membranes Expressing Human Vasopressin V1a Subtype Receptors
The trypsin is removed by aspiration and the cells dislodged by tapping. Cell Culture medium (e.g. 30 mL for 1:30 split) is immediately added and mixed well to inactivate trypsin. 1 mL of detached cells is added to new culture flasks containing fresh cell culture medium (e.g., into 25 mL per T-150 flask), and mixed gently. The cells are incubated at 37° C. in 5% CO2. The medium is changed at 3 to 4 days interval (or as appropriate). […] All steps are done under sterile conditions. B. Membrane Preparation: The cells are washed twice gently with Hank's Balanced Salt solution (e.g,. use 10 mL per T-150 flask). […] The contents are transferred to centrifuge tubes (50 mL) kept in an ice bath. All subsequent steps are done at 4° C. The tubes are centrifuged at 300×g for 15 min (1380 rpm on SORVAL, Model RT6000D, using the rotor for 50 mL tubes). The supernatant is discarded and the cells suspended in homogenizing buffer(10 mM Tris-HCl containing 0.25 M sucrose and 1 mM EDTA, pH 7.4) ensuring that the volume of the buffer is about ten times the volume of the cell pellet. The cells are pooled into a centrifuge tube (50 mL) and homogenized with a Polytron at setting 6 for 10 sec. The homogenate is transferred into a Potter-Elvjehm homogenizer and homogenized with 3 strokes. The homogenate is centrifuged at 1500×g for 10 min at 4° C. (3100 rpm using SORVAL, model RT6000D, using the rotor for 50 mL tubes). The pellet is discarded. The supernatant is centrifuged at 100,000×g for 60 min. at 4° C. (Beckman L8-80M ultracentrifuge; spin at 37,500 rpm with rotor type 70 Ti for 50 mL tubes; 38,000 rpm with type 80Ti for 15 mL tubes; or 35,800 rpm with rotor type 45Ti). The supernantant is discarded and the pellet suspended in 3 to 4 mL of Tris buffer (50 mM TRIS-HCl, pH 7.4). The protein content is estimated by the Bradford or Lowry method. The volume of the membrane suspension is adjusted with the membrane buffer (50 mM Tris-HCl containing 0.1% BSA and 0.1 mM PMSF) to give 3.0 mg/mL (or as appropriate) of protein. The membranes are aliquoted and stored at −70° C. C. Radioligand Binding Assay: In wells of a 96-well format microtiter plate, is added 90, 110 or 130 μL (to make up a final volume of 200 μL) of assay buffer containing 50 mM of Tris-HCl (pH 7.4), BSA (heat inactivated, protease-free), […], 1 mg % aprotinin, 1 mg % leupeptin, 2 mg % 1,10-phenanthroline, 10 mg % trypsin inhibitor, and 0.1 mM PMSF. The inhibitors are added on the day of the experiment. The components are mixed at room temperature, and then kept in ice bath following adjustment of the pH to 7.4. […] 20 μL of 50% DMSO is added for Manning and other peptide ligands and the assay buffer volume is adjusted accordingly. To each well is added 50 μL of frozen membrane suspension thawed immediately prior to use and diluted in the assay buffer to the required concentration (equivalent to 25 to 50 μg of protein/well as needed). 20 μL of 8 nM [^3H]Manning ligand in the assay buffer, prepared just before use, is added, and incubated at room temperature for 60 min. shaking the plate on a mechanical shaker for the first 15 min. The incubation is stopped by rapid filtration of the plate contents followed by wash with ice-cold buffer (50 mM Tris-HCl, pH 7.4) using a cell harvester (Tomtek and Printed filtermat-B filter paper). The filter paper is thoroughly dried (7–12 min. in a microwave oven) and impregnated with MeltiLex B/H melt-on scintillation wax sheets and the radioactivity counted in a betaplate scintillation counter.
Binding data is either reported as percent inhibition at a certain concentration or if an IC50 was calculated, as a nanomolar concentration.

T1 sequence (P37288 whole entry): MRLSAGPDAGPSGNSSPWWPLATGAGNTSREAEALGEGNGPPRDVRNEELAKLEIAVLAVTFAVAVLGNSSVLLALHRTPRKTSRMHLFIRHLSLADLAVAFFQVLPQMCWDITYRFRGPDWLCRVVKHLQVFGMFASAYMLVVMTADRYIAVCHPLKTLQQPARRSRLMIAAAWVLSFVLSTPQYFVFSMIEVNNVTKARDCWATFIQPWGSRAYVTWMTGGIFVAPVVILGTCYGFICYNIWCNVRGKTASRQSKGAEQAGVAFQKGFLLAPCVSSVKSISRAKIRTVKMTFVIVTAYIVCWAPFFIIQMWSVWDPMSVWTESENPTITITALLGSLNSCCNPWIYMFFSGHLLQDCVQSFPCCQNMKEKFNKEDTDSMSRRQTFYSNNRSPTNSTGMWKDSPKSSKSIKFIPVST

Row | Compound | inhibition at 0.1 µM [%] | V1a % inhibition @ 100 nM [%]
1 | Cc1ccccc1-c1ccc(C(=O)N2Cc3ccc(C(=O)N4CCC(N5CCCC5)CC4)n3Cc3ccccc32)cc1C [Example 138, {10-[(2,2′-Dimethyl[1,1′-biphenyl]-4-yl)carbonyl]-10,11-dihydro-5H-pyrrolo[2,1-c][1,4]benzodiazepin-3-yl}[4-(1-pyrrolidinyl)-1-piperidinyl]methanone] | 47 | –
2 | COc1ccccc1-c1ccc(C(=O)N2Cc3ccc(C(=O)NCCCn4ccnc4)n3Cc3ccccc32)cc1C [Example 123, N-[3-(1H-Imidazol-1-yl)propyl]-10-[(2′-methoxy-2-methyl[1,1′-biphenyl]-4-yl)carbonyl]-10,11-dihydro-5H-pyrrolo[2,1-c][1,4]benzodiazepine-3-carboxamide] | 9 | –
3 | COc1cccc(-c2ccc(C(=O)N3Cc4ccc(C(=O)N5CCC(N6CCCCC6)CC5)n4Cc4ccccc43)cc2OC)c1 [Example 120, {10-[(2,3′-Dimethoxy-[1,1′-biphenyl]-4-yl)carbonyl]-10,11-dihydro-5H-pyrrolo[2,1-c][1,4]benzodiazepin-3-yl}[4-(1-piperidinyl)-1-piperidinyl]methanone] | 20 | –
4 | COc1cc(-c2ccccc2C)c(Cl)cc1C(=O)N1Cc2ccc(C(=O)N3CCC[C@H]3CN3CCCC3)n2Cc2ccccc21 [Example 267, {10-[(6-Chloro-3-methoxy-2′-methyl[1,1′-biphenyl]-4-yl)carbonyl]-10,11-dihydro-5H-pyrrolo[2,1-c][1,4]benzodiazepin-3-yl}[(2S)-2-(1-pyrrolidinylmethyl)pyrrolidinyl]methanone] | – | 12
5 | Cc1ccccc1-c1ccc(C(=O)N2Cc3ccc(C(=O)NCCN4CCCCC4)n3Cc3ccccc32)cc1 [Example 153, 10-[(2′-Methyl[1,1′-biphenyl]-4-yl)carbonyl]-N-[2-(1-piperidinyl)ethyl]-10,11-dihydro-5H-pyrrolo[2,1-c][1,4]benzodiazepine-3-carboxamide] | 50 | –
6 | Cc1ccccc1-c1ccc(C(=O)N2Cc3ccc(C(=O)NCCCn4ccnc4)n3Cc3ccccc32)cc1C [Example 124, 10-[(2,2′-Dimethyl[1,1′-biphenyl]-4-yl)carbonyl]-N-[3-(1H-imidazol-1-yl)propyl]-10,11-dihydro-5H-pyrrolo[2,1-c][1,4]benzodiazepine-3-carboxamide] | 16 | –
7 | COc1cccc(-c2ccc(C(=O)N3Cc4ccc(C(=O)N5CCN(CCN(C)C)CC5)n4Cc4ccccc43)cc2C)c1 [Example 199, {4-[2-(Dimethylamino)ethyl]-1-piperazinyl{}10-[(3′-methoxy-2-methyl[1,1′-biphenyl]-4-yl)carbonyl]-10,11-dihydro-5H-pyrrolo[2,1-c][1,4]benzodiazepin-3-yl}methanone] | – | 23
8 | COc1cccc(-c2ccc(C(=O)N3Cc4ccc(C(=O)NCCCn5ccnc5)n4Cc4ccccc43)cc2OC)c1 [Example 133, 10-[(2,3′-Dimethoxy[1,1′-biphenyl]4-yl)carbonyl]-N-[3-(1H-imidazol-1-yl)propyl]-10,11-dihydro-5H-pyrrolo[2,1-c][1,4]benzodiazepine-3-carboxamide] | 20 | –
9 | COc1ccccc1-c1ccc(C(=O)N2Cc3ccc(C(=O)NCCCn4ccnc4)n3Cc3ccccc32)cc1 [Example 126, N-[3-(1H-Imidazol-1-yl)propyl]-10-[(2′-methoxy[1,1′-biphenyl]-4-yl)carbonyl]-10,11-dihydro-5H-pyrrolo[2,1-c][1,4]benzodiazepine-3-carboxamide] | 9 | –
10 | CN(C)[C@@H]1CCN(C(=O)c2ccc3n2Cc2ccccc2N(C(=O)c2ccc(-c4cccc5ccccc45)cc2Cl)C3)C1 [Example 277, {10-[2-Chloro-4-(1-naphthyl)benzoyl]-10,11-dihydro-5H-pyrrolo[2,1-c][1,4]benzodiazepin-3-yl}[(3R)-3-(dimethylamino)pyrrolidinyl]methanone] | – | 8
11 | COc1cccc(-c2ccc(C(=O)N3Cc4ccc(C(=O)NCCN5CCCCC5)n4Cc4ccccc43)cc2C)c1 [Example 151, 10-[(3′-Methoxy-2-methyl[1,1′-biphenyl]-4-yl)carbonyl]-N-[2-(1-piperidinyl)ethyl]-10,11-dihydro-5H-pyrrolo[2,1-c][1,4]benzodiazepine-3-carboxamide] | 17 | –
12 | COc1cc(C(=O)N2Cc3ccc(C(=O)N4CCC[C@H]4CN4CCCC4)n3Cc3ccccc32)ccc1-n1c(C)ccc1C [Example 321, {10-[4-(2,5-Dimethyl-1H-pyrrol-1-yl)-3-methoxybenzoyl]-10,11-dihydro-5H-pyrrolo[2,1-c][1,4]benzodiazepin-3-yl}[(2S)-2-(1-pyrrolidinylmethyl)pyrrolidinyl]methanone] | – | 5
13 | COc1cc2c(cc1OC)N(C(=O)c1ccc(-c3ccccc3C(F)(F)F)c(C)c1)Cc1ccc(C(=O)N3CCC(=O)CC3)n1C2 [Example 14, 7,8-Dimethoxy-10-{[2-methyl-2′-(trifluoromethyl)-[1,1′-biphenyl]-4-yl]carbonyl}-[(10,11-dihydro-5H-pyrrolo[2,1-c][1,4]benzodiazepin-3-yl)carbonyl]-4-piperidinone] | – | −16
14 | COc1cccc(-c2ccc(C(=O)N3Cc4ccc(C(=O)N5CCC(N6CCCCC6)CC5)n4Cc4ccccc43)cc2C)c1 [Example 114, {10-[(2-Methyl-3′-methoxy[1,1′-biphenyl]-4-yl)carbonyl]-10,11-dihydro-5H-pyrrolo[2,1-c][1,4]benzodiazepin-3-yl}[4-(1-piperidinyl)-1-piperidinyl]methanone] | 11 | –
15 | COc1cccc(-c2ccc(C(=O)N3Cc4ccc(C(=O)NCCCn5ccnc5)n4Cc4ccccc43)cc2C)c1 [Example 125, N-[3-(1H-Imidazol-1-yl)propyl]-10-[(3′-methoxy-2-methyl[1,1′-biphenyl]-4-yl)carbonyl]-10,11-dihydro-5H-pyrrolo[2,1-c][1,4]benzodiazepine-3-carboxamide] | 10 | –
16 | COc1cccc(-c2cc(OC)c(C(=O)N3Cc4ccc(C(=O)N5CCC[C@H]5CN5CCCC5)n4Cc4ccccc43)cc2Cl)c1 [Example 268, {10-[(6-Chloro-3,3′-dimethoxy[1,1′-biphenyl]-4-yl)carbonyl]-10,11-dihydro-5H-pyrrolo[2,1-c][1,4]benzodiazepin-3-yl}[(2S)-2-(1-pyrrolidinylmethyl)pyrrolidinyl]methanone] | – | 6
17 | COc1cccc(-c2cc(OC)c(C(=O)N3Cc4ccc(C(=O)NCCCn5ccnc5)n4Cc4ccccc43)cc2Cl)c1 [Example 130, 10-[(6-Chloro-3,3′-dimethoxy[1,1′-biphenyl]-4-yl)carbonyl]-N-[3-(1H-imidazol-1-yl)propyl]-10,11-dihydro-5H-pyrrolo[2,1-c][1,4]benzodiazepine-3-carboxamide] | 4 | –
18 | COc1ccccc1-c1ccc(C(=O)N2Cc3ccc(C(=O)N4CCC(N5CCCCC5)CC4)n3Cc3ccccc32)cc1OC [Example 119, {10-[(2,2′-Dimethoxy-[1,1′-biphenyl]-4-yl)carbonyl]-10,11-dihydro-5H-pyrrolo[2,1-c][1,4]benzodiazepin-3-yl}[4-(1-piperidinyl)-1-piperidinyl]methanone] | 9 | –
19 | Cc1ccccc1-c1ccc(C(=O)N2Cc3ccc(C(=O)N4CCC(N5CCCC5)CC4)n3Cc3ccccc32)cc1 [Example 141, {10-[(2′-Methyl[1,1′-biphenyl]-4-yl)carbonyl]-10,11-dihydro-5H-pyrrolo[2,1-c][1,4]benzodiazepin-3-yl}[4-(1-pyrrolidinyl)-1-piperidinyl]methanone] | -3 | –

Reference: patent US7109193B2, “Tricyclic diazepines tocolytic oxytocin receptor antagonists” (Wyeth, priority 2001, dated 2006)
